The record followed here is patent publication US20240351988A1, “ARYL HYDROCARBON RECEPTOR MODULATORS AND THEIR USE IN THE TREATMENT OF DISEASES AND DISORDERS” (Allianthera (Suzhou) Biopharmaceutical Co., Ltd., priority 2021, published 2024).

The experiment concerns the target T1, Human Aryl Hydrocarbon Receptor (AhR) (Homo sapiens, UniProt P35869).
T1 construct: purchased INDIGO Bioscience #1B06001-32; host or cells: AhR Reporter Cell (kit's proprietary reporter cells)
T1 sequence (P35869 11-848): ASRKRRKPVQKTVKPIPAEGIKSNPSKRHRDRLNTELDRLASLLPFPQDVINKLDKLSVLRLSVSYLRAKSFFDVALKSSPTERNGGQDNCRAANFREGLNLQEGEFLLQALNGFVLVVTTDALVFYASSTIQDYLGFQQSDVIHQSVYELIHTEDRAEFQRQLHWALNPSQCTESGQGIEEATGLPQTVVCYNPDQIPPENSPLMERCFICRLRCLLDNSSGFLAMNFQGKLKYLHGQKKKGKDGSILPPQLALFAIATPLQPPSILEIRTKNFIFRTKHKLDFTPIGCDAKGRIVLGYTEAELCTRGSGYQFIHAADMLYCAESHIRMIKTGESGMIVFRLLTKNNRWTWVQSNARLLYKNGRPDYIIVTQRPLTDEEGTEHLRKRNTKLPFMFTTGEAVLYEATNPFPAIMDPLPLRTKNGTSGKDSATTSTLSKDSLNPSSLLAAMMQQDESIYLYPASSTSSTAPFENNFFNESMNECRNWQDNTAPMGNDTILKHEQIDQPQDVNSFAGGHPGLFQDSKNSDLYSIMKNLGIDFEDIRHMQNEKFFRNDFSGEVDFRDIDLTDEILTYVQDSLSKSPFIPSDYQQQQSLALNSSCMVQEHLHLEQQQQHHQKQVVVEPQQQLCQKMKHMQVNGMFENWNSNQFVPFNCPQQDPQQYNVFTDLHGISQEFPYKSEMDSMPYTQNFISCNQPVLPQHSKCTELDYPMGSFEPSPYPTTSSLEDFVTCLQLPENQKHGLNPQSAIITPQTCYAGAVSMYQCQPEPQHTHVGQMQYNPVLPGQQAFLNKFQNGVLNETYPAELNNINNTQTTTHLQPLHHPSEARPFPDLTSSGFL
The experiment in a line: AHR antagonist reporter assay in human cell line (INDIGO AhR Reporter Assay System, kynurenic acid activated). The experiment is classed as cell-based. The following applies: 200 μM kynurenic acid, 24 hours, luciferase; read-out: AhR Reporter Assay KA Antagonist Mode: IC50. The protocol: The AhR reporter assay was performed following the protocol of the Human Aryl Hydrocarbon Receptor (AhR) Reporter Assay System (INDIGO Bioscience, #1B06001-32). AhR Reporter Cell was thawed and pre-incubated in Cell Recovery Medium (CRM) for 6 hours. The media was then removed and the cells were incubated with Compound Screening Medium (CSM) supplemented with 200 μM kynurenic acid for 24 hours in the absence (negative control) or presence of increasing concentrations of test compounds (typical dilution: […], 3.2 nM, 16 nM, 80 nM, 400 nM, 2 μM, 10 μM in duplicates). For positive inhibition control, cells activated with 200 μM kynurenic acid were incubated in the presence of literature AHR antagonists; alternatively un-activated cells were used as positive inhibition control. Following 24 hours incubation, the media was removed and Luciferase Detection Reagent (LDR) added. The firefly luciferase activity was quantified using a plate reader. Results were normalized by positive and negative controls.
With `COC[C@H](C)NC(=O)c1cc(N2CC3(CCCCC3)C2)nn(-c2cnn(C)c2)c1=O` [Compound 117], the IC50 was > 400 nM.

For the compound `COC[C@H](C)NC(=O)c1cc(-c2ccccc2Cl)nn(-c2cnn(C)c2)c1=O` [Compound 118], the IC50 is > 400 nM. The same measure for `COC[C@H](C)NC(=O)c1cc(C2CCC(C)(C)CC2)nn(-c2cnn(C)c2)c1=O` [Compound 119]: > 400 nM.

For `COC[C@H](C)NC(=O)c1cc(-c2cc3cccnc3cc2F)nn(-c2cnn(C)c2)c1=O` [Compound 121], the IC50 was > 400 nM. The same measure for `COC[C@H](C)NC(=O)c1cc(-c2ccc3ccc(OC)nc3c2)nn(-c2cnn(C)c2)c1=O` [Compound 122]: > 400 nM. The same measure for `COC[C@H](C)NC(=O)c1cc(-c2ccc3oc(C)nc3c2)nn(-c2cnn(C)c2)c1=O` [Compound 124]: > 400 nM. The same measure for `COC[C@H](C)NC(=O)c1cc(N2C[C@H]3CCCC[C@H]3C2)nn(-c2cnn(C)c2)c1=O` [Compound 125]: < 100 nM. In the case of `COC[C@H](C)NC(=O)c1cc(-c2ccc3ncccc3c2)nn(-c2cnn(C)c2)c1=O` [Compound 126], the IC50 is > 400 nM. With `COC[C@H](C)NC(=O)c1cc(N2CCC(C)(C)CC2)nn(-c2cnn(C)c2)c1=O` [Compound 127], the IC50 was > 400 nM.

For the compound `COC[C@H](C)NC(=O)c1cc(-c2ccc3c(c2)OCCO3)nn(-c2cnn(C)c2)c1=O` [Compound 128], the IC50 is > 400 nM. Then `COC[C@H](C)NC(=O)c1cc(-c2ccc3c(C)ccnc3c2)nn(-c2cnn(C)c2)c1=O` [Compound 129], with > 400 nM; and `COC[C@H](C)NC(=O)c1cc(-c2ccc3cccnc3c2F)nn(-c2cnn(C)c2)c1=O` [Compound 130], with 100 to 400 nM. Then `COC[C@H](C)NC(=O)c1cc(-c2ccc3nc(N)ccc3c2)nn(-c2cnn(C)c2)c1=O` [Compound 131], with > 400 nM.

For `COC[C@H](C)NC(=O)c1cc(-c2ccc3sc(C)nc3c2)nn(-c2cnn(C)c2)c1=O` [Compound 132], the 50% inhibitory concentration (IC50) is > 400 nM. Then `COC[C@H](C)NC(=O)c1cc(-c2ccc3cnccc3c2)nn(-c2cnn(C)c2)c1=O` [Compound 133], with > 400 nM; and `COC[C@H](C)NC(=O)c1cc(N2C(=O)C(C)(C)c3ccccc32)nn(-c2cnn(C)c2)c1=O` [Compound 134], with > 400 nM; and `COC[C@H](C)NC(=O)c1cc(-n2cc(C)c(C)n2)nn(-c2cnn(C)c2)c1=O` [Compound 135], with > 400 nM. Turning to `COC[C@H](C)NC(=O)c1cc(-n2cc(C(F)(F)F)cn2)nn(-c2cnn(C)c2)c1=O` [Compound 136], the IC50 was > 400 nM. Then `COC[C@H](C)NC(=O)c1cc(-n2ccc(C3CC3)n2)nn(-c2cnn(C)c2)c1=O` [Compound 137], with > 400 nM; and `COC[C@H](C)NC(=O)c1cc(-n2ccc(C(F)(F)F)n2)nn(-c2cnn(C)c2)c1=O` [Compound 138], with > 400 nM.

On to `COC[C@H](C)NC(=O)c1cc(-c2ccc3c(c2)OCO3)nn(-c2cnn(C)c2)c1=O` [Compound 140], for which the IC50 was > 400 nM.

For `COC[C@H](C)NC(=O)c1cc(-c2ccc3c(c2)N(C)CC3)nn(-c2cnn(C)c2)c1=O` [Compound 141], the IC50 is > 400 nM. The same measure for `COC[C@H](C)NC(=O)c1cc(-n2ccc(-c3ccc(Cl)cc3)n2)nn(-c2cnn(C)c2)c1=O` [Compound 142]: < 100 nM; for `COC[C@H](C)NC(=O)c1cc(-n2nc(C(F)(F)F)cc2C)nn(-c2cnn(C)c2)c1=O` [Compound 143]: > 400 nM.

`COC[C@H](C)NC(=O)c1cc(-c2cc(F)c3ncccc3c2F)nn(-c2cnn(C)c2)c1=O` [Compound 144]: the IC50 was > 400 nM.

As to `COC[C@H](C)NC(=O)c1cc(N2CCC3(CCCCC3)C2)nn(-c2cnn(C)c2)c1=O` [Compound 145], the IC50 is > 400 nM. Then `COC[C@H](C)NC(=O)c1cc(C2=CCC(C)CC2)nn(-c2cnn(C)c2)c1=O` (stereo partly drawn) [Compound 149], with < 100 nM.
